Source: patent publication US6358885B1, “Substituted phenylheterocyclic herbicides” (Mississippi State University, priority 1992, dated 2002)

Legend:
blackgrass = experiment: Test B preemergence/postemergence greenhouse plant response rating 0 to 10; format: in vivo, Alopecurus myosuroides; details: for Plant response rating, Blackgrass: 0 to 10 scale
In short: (§1)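 Test chemicals were sprayed onto freshly planted seed and, concurrently, onto young plants between the one and four leaf stage. After a twelve- to sixteen-day greenhouse period, each species was visually compared with untreated controls.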

lambsquarters [1] = experiment: Test C preemergence/postemergence greenhouse plant response rating 0 to 100; format: in vivo, Chenopodium album; details: for Plant response rating Lambsquarters: 125 g/ha, 0 to 100 scale
In short: (§2)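 Compounds in non-phytotoxic solvent went onto sandy loam before emergence (seeded one day earlier) or onto plants at the one-to-four leaf stage. Duck salad was treated via flood water (~2.5 cm, maintained) over silt loam.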

soybean [2] = experiment: as above; format: in vivo, Glycine max; details: for Plant response rating, Soybean: 125 g/ha, 0 to 100 scale
In short: as §2

velvetleaf = experiment: Test B preemergence/postemergence greenhouse plant response rating 0 to 10; format: in vivo, Abutilon theophrasti; details: for Plant response rating, Velvetleaf: 0 to 10 scale
In short: as §1

barley [3] = experiment: as above; format: in vivo, Hordeum vulgare; details: for Plant response rating, Barley: 0 to 10 scale
In short: as §1

sugar beet = experiment: Test C preemergence/postemergence greenhouse plant response rating 0 to 100; format: in vivo, Beta vulgaris; details: for Plant response rating, Sugar beet: 125 g/ha, 0 to 100 scale
In short: as §2

giant foxtail = experiment: Test B preemergence/postemergence greenhouse plant response rating 0 to 10; format: in vivo, Setaria faberii; details: for Plant response rating, Giant foxtail: 0 to 10 scale
In short: as §1

soybean [4] = experiment: as above; format: in vivo, Glycine max; details: for Plant response rating, Soybean: 0 to 10 scale
In short: as §1

wild buckwheat = experiment: Test C preemergence/postemergence greenhouse plant response rating 0 to 100; format: in vivo, Polygonum convolvulus; details: for Plant response rating, Wild buckwheat: 125 g/ha, 0 to 100 scale
In short: as §2

crabgrass = experiment: Test B preemergence/postemergence greenhouse plant response rating 0 to 10; format: in vivo, Digitaria spp.; details: for Plant response rating, Crabgrass: 0 to 10 scale
In short: as §1

rape = experiment: as above; format: in vivo, Brassica napus; details: for Plant response rating, Rape: 0 to 10 scale
In short: as §1

cheatgrass = experiment: as above; format: in vivo, Bromus secalinus; details: for Plant response rating, Cheatgrass: 0 to 10 scale
In short: as §1

ryegrass = experiment: Test C preemergence/postemergence greenhouse plant response rating 0 to 100; format: in vivo, Lolium multiflorum; details: for Plant response rating Ryegrass: 125 g/ha, 0 to 100 scale
In short: as §2

purple nutsedge = experiment: Test B preemergence/postemergence greenhouse plant response rating 0 to 10; format: in vivo, Cyperus rotundus; details: for Plant response rating, Nutsedge: 0 to 10 scale
In short: as §1

lambsquarters [5] = experiment: as above; format: in vivo, Chenopodium album; details: for Plant response rating, Lambsquarter: 0 to 10 scale
In short: as §1

barley [6] = experiment: Test C preemergence/postemergence greenhouse plant response rating 0 to 100; format: in vivo, Hordeum vulgare; details: for Plant response rating Barley Igri: 125 g/ha, 0 to 100 scale
In short: as §2

pigweed = experiment: as above; format: in vivo, Amaranthusretroflexus; details: for Plant response rating Pigweed: 125 g/ha, 0 to 100 scale
In short: as §2

chickweed = experiment: as above; format: in vivo, Stellaria media; details: for Plant response rating, Chickweed: 125 g/ha, 0 to 100 scale
In short: as §2

COCOc1cc(-c2nn3c(c2Cl)CCCC3)c(F)cc1Cl [Compound 58]
Plant response rating, Blackgrass (blackgrass; POSTEMERGENCE, Rate 50 g/ha): 6 | Plant response rating, Blackgrass (blackgrass; PREEMERGENCE, Rate 50 g/ha): 4 | Plant response rating (0 to 10 scale), Blackgrass (blackgrass; PREEMERGENCE, Rate 200 g/ha): 7 | Plant response rating, Blackgrass (blackgrass; Rate 200 g/ha, POSTEMERGENCE): 7 | Plant response rating Lambsquarters (lambsquarters [1]; POSTEMERGENCE): 100 | Plant response rating (0 to 100), Lambsquarters (lambsquarters [1]; POSTEMERGENCE, Rate 2 g/ha): 50 | Plant response rating Lambsquarters (lambsquarters [1]; PREEMERGENCE): 100 | Plant response rating (0 to 100), Lambsquarters (lambsquarters [1]; PREEMERGENCE, Rate 2 g/ha): 0 | Plant response rating (0 to 100), Lambsquarters (lambsquarters [1]; Rate 8 g/ha, POSTEMERGENCE): 85 | Plant response rating (0 to 100), Lambsquarters (lambsquarters [1]; Rate 8 g/ha, PREEMERGENCE): 100 | Plant response rating (0 to 100), Lambsquarters (lambsquarters [1]; Rate 31 g/ha, POSTEMERGENCE): 100 | Plant response rating (0 to 100), Lambsquarters (lambsquarters [1]; Rate 31 g/ha, PREEMERGENCE): 100 | Plant response rating, Soybean (soybean [2]; POSTEMERGENCE): 85 | Plant response rating (0 to 100), Soybean (soybean [2]; POSTEMERGENCE, Rate 2 g/ha): 50 | Plant response rating, Soybean (soybean [2]; PREEMERGENCE): 0 | Plant response rating (0 to 100), Soybean (soybean [2]; PREEMERGENCE, Rate 2 g/ha): 0 | Plant response rating (0 to 100), Soybean (soybean [2]; Rate 8 g/ha, POSTEMERGENCE): 50 | Plant response rating (0 to 100), Soybean (soybean [2]; Rate 8 g/ha, PREEMERGENCE): 0 | Plant response rating (0 to 100), Soybean (soybean [2]; Rate 31 g/ha, POSTEMERGENCE): 70 | Plant response rating (0 to 100), Soybean (soybean [2]; Rate 31 g/ha, PREEMERGENCE): 0 | Plant response rating, Velvetleaf (velvetleaf; POSTEMERGENCE, Rate 50 g/ha): 9 | Plant response rating, Velvetleaf (velvetleaf; PREEMERGENCE, Rate 50 g/ha): 10 | Plant response rating (0 to 10 scale), Velvetleaf (velvetleaf; PREEMERGENCE, Rate 200 g/ha): 10 | Plant response rating, Velvetleaf (velvetleaf; Rate 200 g/ha, POSTEMERGENCE): 10 | Plant response rating, Barley (barley [3]; POSTEMERGENCE, Rate 50 g/ha): 6 | Plant response rating, Barley (barley [3]; PREEMERGENCE, Rate 50 g/ha): 1 | Plant response rating (0 to 10 scale), Barley (barley [3]; PREEMERGENCE, Rate 200 g/ha): 4 | Plant response rating, Barley (barley [3]; Rate 200 g/ha, POSTEMERGENCE): 8 | Plant response rating, Sugar beet (sugar beet; POSTEMERGENCE): 100 | Plant response rating (0 to 100), Sugar beet (sugar beet; POSTEMERGENCE, Rate 2 g/ha): 100 | Plant response rating, Sugar beet (sugar beet; PREEMERGENCE): 100 | Plant response rating (0 to 100), Sugar beet (sugar beet; PREEMERGENCE, Rate 2 g/ha): 10 | Plant response rating (0 to 100), Sugar beet (sugar beet; Rate 8 g/ha, POSTEMERGENCE): 100 | Plant response rating (0 to 100), Sugar beet (sugar beet; Rate 8 g/ha, PREEMERGENCE): 85 | Plant response rating (0 to 100), Sugar beet (sugar beet; Rate 31 g/ha, POSTEMERGENCE): 100 | Plant response rating (0 to 100), Sugar beet (sugar beet; Rate 31 g/ha, PREEMERGENCE): 90 | Plant response rating, Giant foxtail (giant foxtail; POSTEMERGENCE, Rate 50 g/ha): 6 | Plant response rating, Giant foxtail (giant foxtail; PREEMERGENCE, Rate 50 g/ha): 9 | Plant response rating (0 to 10 scale), Giant foxtail (giant foxtail; PREEMERGENCE, Rate 200 g/ha): 10 | Plant response rating, Giant foxtail (giant foxtail; Rate 200 g/ha, POSTEMERGENCE): 6 | Plant response rating, Soybean (soybean [4]; POSTEMERGENCE, Rate 50 g/ha): 7 | Plant response rating, Soybean (soybean [4]; PREEMERGENCE, Rate 50 g/ha): 0 | Plant response rating (0 to 10 scale), Soybean (soybean [4]; PREEMERGENCE, Rate 200 g/ha): 0 | Plant response rating, Soybean (soybean [4]; Rate 200 g/ha, POSTEMERGENCE): 9 | Plant response rating, Wild buckwheat (wild buckwheat; POSTEMERGENCE): 100 | Plant response rating (0 to 100), Wild buckwheat (wild buckwheat; POSTEMERGENCE, Rate 2 g/ha): 100 | Plant response rating, Wild buckwheat (wild buckwheat; PREEMERGENCE): 100 | Plant response rating (0 to 100), Wild buckwheat (wild buckwheat; PREEMERGENCE, Rate 2 g/ha): 0 | Plant response rating (0 to 100), Wild buckwheat (wild buckwheat; Rate 8 g/ha, POSTEMERGENCE): 100 | Plant response rating (0 to 100), Wild buckwheat (wild buckwheat; Rate 8 g/ha, PREEMERGENCE): 40 | Plant response rating (0 to 100), Wild buckwheat (wild buckwheat; Rate 31 g/ha, POSTEMERGENCE): 100 | Plant response rating (0 to 100), Wild buckwheat (wild buckwheat; Rate 31 g/ha, PREEMERGENCE): 100 | Plant response rating, Crabgrass (crabgrass; POSTEMERGENCE, Rate 50 g/ha): 3 | Plant response rating, Crabgrass (crabgrass; PREEMERGENCE, Rate 50 g/ha): 0 | Plant response rating (0 to 10 scale), Crabgrass (crabgrass; PREEMERGENCE, Rate 200 g/ha): 9 | Plant response rating, Crabgrass (crabgrass; Rate 200 g/ha, POSTEMERGENCE): 3 | Plant response rating, Rape (rape; POSTEMERGENCE, Rate 50 g/ha): 9 | Plant response rating, Rape (rape; PREEMERGENCE, Rate 50 g/ha): 5 | Plant response rating (0 to 10 scale), Rape (rape; PREEMERGENCE, Rate 200 g/ha): 5 | Plant response rating, Rape (rape; Rate 200 g/ha, POSTEMERGENCE): 10 | Plant response rating, Cheatgrass (cheatgrass; POSTEMERGENCE, Rate 50 g/ha): 7 | Plant response rating, Cheatgrass (cheatgrass; PREEMERGENCE, Rate 50 g/ha): 4 | Plant response rating (0 to 10 scale), Cheatgrass (cheatgrass; PREEMERGENCE, Rate 200 g/ha): 8 | Plant response rating, Cheatgrass (cheatgrass; Rate 200 g/ha, POSTEMERGENCE): 10 | Plant response rating Ryegrass (ryegrass; POSTEMERGENCE): 85 | Plant response rating (0 to 100), Ryegrass (ryegrass; POSTEMERGENCE, Rate 2 g/ha): 10 | Plant response rating Ryegrass (ryegrass; PREEMERGENCE): 100 | Plant response rating (0 to 100), Ryegrass (ryegrass; PREEMERGENCE, Rate 2 g/ha): 0 | Plant response rating (0 to 100), Ryegrass (ryegrass; Rate 8 g/ha, POSTEMERGENCE): 30 | Plant response rating (0 to 100), Ryegrass (ryegrass; Rate 8 g/ha, PREEMERGENCE): 0 | Plant response rating (0 to 100), Ryegrass (ryegrass; Rate 31 g/ha, POSTEMERGENCE): 60 | Plant response rating (0 to 100), Ryegrass (ryegrass; Rate 31 g/ha, PREEMERGENCE): 50 | Plant response rating, Nutsedge (purple nutsedge; POSTEMERGENCE, Rate 50 g/ha): 5 | Plant response rating, Nutsedge (purple nutsedge; PREEMERGENCE, Rate 50 g/ha): 0 | Plant response rating (0 to 10 scale), Nutsedge (purple nutsedge; PREEMERGENCE, Rate 200 g/ha): 0 | Plant response rating, Nutsedge (purple nutsedge; Rate 200 g/ha, POSTEMERGENCE): 9 | Plant response rating, Lambsquarter (lambsquarters [5]; POSTEMERGENCE, Rate 50 g/ha): 10 | Plant response rating, Lambsquarter (lambsquarters [5]; PREEMERGENCE, Rate 50 g/ha): 10 | Plant response rating (0 to 10 scale), Lambsquarter (lambsquarters [5]; PREEMERGENCE, Rate 200 g/ha): 10 | Plant response rating, Lambsquarter (lambsquarters [5]; Rate 200 g/ha, POSTEMERGENCE): 10 | Plant response rating Barley Igri (barley [6]; POSTEMERGENCE): 60 | Plant response rating (0 to 100), Barley Igri (barley [6]; POSTEMERGENCE, Rate 2 g/ha): 30 | Plant response rating Barley Igri (barley [6]; PREEMERGENCE): 30 | Plant response rating (0 to 100), Barley Igri (barley [6]; PREEMERGENCE, Rate 2 g/ha): 0 | Plant response rating (0 to 100), Barley Igri (barley [6]; Rate 8 g/ha, POSTEMERGENCE): 40 | Plant response rating (0 to 100), Barley Igri (barley [6]; Rate 8 g/ha, PREEMERGENCE): 0 | Plant response rating (0 to 100), Barley Igri (barley [6]; Rate 31 g/ha, POSTEMERGENCE): 50 | Plant response rating (0 to 100), Barley Igri (barley [6]; Rate 31 g/ha, PREEMERGENCE): 0 | Plant response rating Pigweed (pigweed; POSTEMERGENCE): 100 | Plant response rating (0 to 100), Pigweed (pigweed; POSTEMERGENCE, Rate 2 g/ha): 90 | Plant response rating Pigweed (pigweed; PREEMERGENCE): 100 | Plant response rating (0 to 100), Pigweed (pigweed; PREEMERGENCE, Rate 2 g/ha): 0 | Plant response rating (0 to 100), Pigweed (pigweed; Rate 8 g/ha, POSTEMERGENCE): 100 | Plant response rating (0 to 100), Pigweed (pigweed; Rate 8 g/ha, PREEMERGENCE): 100 | Plant response rating (0 to 100), Pigweed (pigweed; Rate 31 g/ha, POSTEMERGENCE): 100 | Plant response rating (0 to 100), Pigweed (pigweed; Rate 31 g/ha, PREEMERGENCE): 100 | Plant response rating, Chickweed (chickweed; POSTEMERGENCE): 100 | Plant response rating (0 to 100), Chickweed (chickweed; POSTEMERGENCE, Rate 2 g/ha): 20 | Plant response rating, Chickweed (chickweed; PREEMERGENCE): 70 | Plant response rating (0 to 100), Chickweed (chickweed; PREEMERGENCE, Rate 2 g/ha): 10 | Plant response rating (0 to 100), Chickweed (chickweed; Rate 8 g/ha, POSTEMERGENCE): 70 | Plant response rating (0 to 100), Chickweed (chickweed; Rate 31 g/ha, POSTEMERGENCE): 100 | Plant response rating (0 to 100), Chickweed (chickweed; Rate 31 g/ha, PREEMERGENCE): 10
